Reference: patent US9822147B2, “Methods of treating ophthalmic diseases using NPR-B agonists” (priority 2009, dated 2017)
Numbered stars: 1 amine (or outer) side, 2 acyl side, 3 side chain; on linkers, the order of the positions; unused ones are H or OH. Square brackets hold non-standard residues; d marks the D form. Peptide text beside a SMILES is read from it. * marks the point of attachment. Pro(4R-NH2) = N[C@H]1CN[C@H](C(=O)O)C1; dOrn(Me2) = CN(C)CCC[C@@H](N)C(=O)O; X2 = O=C([C@H]1CCCN([*:1])C1)[*:2]; dDap(Me2) = CN(C)C[C@@H](N)C(=O)O; Hyp = O=C(O)[C@@H]1C[C@@H](O)CN1; NHcycloheptyl = C1CCCC(N*)CC1; NMeL = CN[C@@H](CC(C)C)C(=O)O; Octanoyl = CCCCCCCC(=O)*; Api = NC1(C(=O)O)CCNCC1

What was measured:
NPR-B = target: T1, NPR-B (Homo sapiens, UniProt P20594); assay: NPR-B induced production of cyclic GMP in human glaucoma trabecular meshwork cells (GTM-3); type: cell-based; conditions: group by EC50 and Emax (CNP = 100%); Table 4; read-out: Activity (group), NPR-B activation assayed with GTM-3 cells
T1 construct: a functional assay using endogenously NPR-B expressing GTM-3 cells; endogenous in cells; host or cells: GTM-3 (human glaucoma trabecular meshwork cells)
T1 sequence (P20594 23-1047): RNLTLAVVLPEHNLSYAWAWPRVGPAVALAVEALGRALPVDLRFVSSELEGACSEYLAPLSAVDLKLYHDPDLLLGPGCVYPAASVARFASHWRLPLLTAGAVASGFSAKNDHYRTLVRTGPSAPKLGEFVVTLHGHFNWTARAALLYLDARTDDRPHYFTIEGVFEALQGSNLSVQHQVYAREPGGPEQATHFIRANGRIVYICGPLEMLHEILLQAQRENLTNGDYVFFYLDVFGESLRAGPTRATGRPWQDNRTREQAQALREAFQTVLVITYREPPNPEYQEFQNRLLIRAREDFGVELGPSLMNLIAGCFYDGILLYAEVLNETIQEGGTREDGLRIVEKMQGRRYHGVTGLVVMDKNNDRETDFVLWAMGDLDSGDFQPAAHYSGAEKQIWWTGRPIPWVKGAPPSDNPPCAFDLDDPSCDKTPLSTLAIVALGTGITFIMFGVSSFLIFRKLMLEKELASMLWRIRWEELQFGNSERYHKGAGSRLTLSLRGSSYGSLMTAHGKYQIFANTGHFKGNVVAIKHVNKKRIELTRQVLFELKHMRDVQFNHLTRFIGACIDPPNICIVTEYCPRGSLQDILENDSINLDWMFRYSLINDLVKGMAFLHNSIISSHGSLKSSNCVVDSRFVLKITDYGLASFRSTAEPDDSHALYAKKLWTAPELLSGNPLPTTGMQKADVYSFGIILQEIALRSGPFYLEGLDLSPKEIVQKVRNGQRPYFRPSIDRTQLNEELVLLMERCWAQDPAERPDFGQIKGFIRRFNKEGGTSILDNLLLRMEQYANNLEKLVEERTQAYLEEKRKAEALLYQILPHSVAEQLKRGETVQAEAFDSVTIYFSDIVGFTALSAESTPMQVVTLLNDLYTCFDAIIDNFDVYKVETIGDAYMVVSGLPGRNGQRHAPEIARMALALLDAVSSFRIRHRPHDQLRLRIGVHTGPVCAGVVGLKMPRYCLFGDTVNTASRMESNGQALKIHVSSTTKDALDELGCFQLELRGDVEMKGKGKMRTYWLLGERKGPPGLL

rabbit eyes = assay: Efficacy in the rabbit: intraocular pressure (IOP) after a single topical ocular drop; type: in vivo; conditions: dose 300 ug topical ocular, single 30 μL drop, up to 4 hr post dose, 1% as suspension (+) or solution (++) per mark on label
Experimental: A single 30 μL drop of a test item formulation was administered to rabbit eyes (n=8 to 10).
Intraocular pressure (IOP) was assessed in each eye at 0 hr, just prior to dosing, and again hourly for up to 4 hr post dose. The efficacy of a given formulation was determined based on the difference between the pretreatment TOP readings at 0 hr and the post treatment readings. A maximum percent reduction in IOP greater than 15% was noted by the “+” symbol. A maximum IOP reduction of less than 15% was assigned the “−” symbol.

Structure (SMILES)	EC50 (NPR-B) [µM]	RIOP, maximum percent reduction in IOP (rabbit eyes)
CCCCCCCC(=O)N[C@H](C)C(=O)N[C@@H](Cc1ccccc1)C(=O)N[C@H](CCCNC(=N)N)C(=O)N[C@@H](CC(C)C)C(=O)N1C[C@H](O)C[C@H]1C(=O)N[C@@H](CC(C)C)C(=O)N[C@@H](CC(=O)O)C(=O)N[C@@H](CCCNC(=N)N)C(=O)N[C@H](C(N)=O)[C@@H](C)CC [JAL-1047, Occ-ala-Phe-arg-Leu-Hyp-Leu-Asp-Arg-Ile-NH2] (HELM PEPTIDE1{[CCCCCCCC(=O)[*:2]].[dA].F.[dR].L.[Hyp].L.D.R.I.[am]}$$$$V2.0)	< 1	+ (+ IOP reduction >15%)
CCCCCCCC(=O)N[C@H](C)C(=O)N[C@@H](Cc1ccccc1)C(=O)N[C@H](CCCCN)C(=O)N[C@@H](CC(C)C)C(=O)N1C[C@H](O)C[C@H]1C(=O)N(C)[C@@H](CC(C)C)C(=O)N[C@@H](CC(=O)O)C(=O)N[C@@H](CCCNC(=N)N)C(=O)N[C@H](C(N)=O)[C@@H](C)CC [JAL-1060, Occ-ala-Phe-lys-Leu-Hyp-Nml-Asp-Arg-Ile-NH2] (HELM PEPTIDE1{[CCCCCCCC(=O)[*:2]].[dA].F.[dK].L.[Hyp].[meL].D.R.I.[am]}$$$$V2.0)	< 1	+ (+ IOP reduction >15%)
CCCCCCCC(=O)N[C@H](C)C(=O)N(C)[C@@H](Cc1ccccc1)C(=O)N[C@H](CCCNC(=N)N)C(=O)N[C@@H](CC(C)C)C(=O)N1C[C@H](O)C[C@H]1C(=O)N(C)[C@@H](CC(C)C)C(=O)N[C@@H](CC(=O)O)C(=O)N[C@@H](CCCNC(=N)N)C(=O)N[C@H](C(N)=O)[C@@H](C)CC [JAL-1085, Occ-ala-Nmf-arg-Leu-Hyp-Nml-Asp-Arg-Ile-NH2] (HELM PEPTIDE1{[CCCCCCCC(=O)[*:2]].[dA].[meF].[dR].L.[Hyp].[meL].D.R.I.[am]}$$$$V2.0)	< 1	+ (+ IOP reduction >15%)
CCCCCCCC(=O)N[C@H](C)C(=O)N[C@@H](Cc1ccccc1)C(=O)N[C@H](CCCNC(=N)N)C(=O)N[C@@H](CC(C)C)C(=O)N1C[C@H](O)C[C@H]1C(=O)N(C)[C@@H](CC(C)C)C(=O)N[C@@H](CC(=O)O)C(=O)N[C@@H](CCCNC(=N)N)C(=O)N[C@H](C(N)=O)[C@@H](C)CC [JAL-1086, Occ-ala-Phe-arg-Leu-Hyp-Nml-Asp-Arg-Ile-NH2] (HELM PEPTIDE1{[CCCCCCCC(=O)[*:2]].[dA].F.[dR].L.[Hyp].[meL].D.R.I.[am]}$$$$V2.0)	< 1	+ (+ IOP reduction >15%)
CCCCCCCC(=O)N1CCC[C@H](C(=O)N[C@@H](Cc2ccccc2)C(=O)N[C@H](CN(C)C)C(=O)N[C@@H](CC(C)C)C(=O)N2C[C@H](O)C[C@H]2C(=O)N(C)[C@@H](CC(C)C)C(=O)N[C@@H](CC(=O)O)C(=O)N[C@@H](CCCNC(=N)N)C(=O)N[C@H](C(N)=O)[C@@H](C)CC)C1 [JAL-1287, Occ-Sni-Phe-dap(Me2)-Leu-Hyp-Nml-Asp-Arg-Ile-NH2] (Octanoyl-[X2]F[dDap(Me2)]L[Hyp][NMeL]DRI-NH2)	< 1	+ (+ IOP reduction >15%)

Second part, led by results:

EC50 (NPR-B) [µM]	Structure (SMILES)	RIOP, maximum percent reduction in IOP (rabbit eyes)
< 1	CCCCCCCC(=O)N1CCC[C@H](C(=O)N[C@@H](Cc2ccccc2)C(=O)N[C@H](CCCN(C)C)C(=O)N[C@@H](CC(C)C)C(=O)N2C[C@H](O)C[C@H]2C(=O)N(C)[C@@H](CC(C)C)C(=O)N[C@@H](CC(=O)O)C(=O)N[C@@H](CCCNC(=N)N)C(=O)N[C@H](C(N)=O)[C@@H](C)CC)C1 [JAL-1289, Occ-Sni-Phe-orn(Me2)-Leu-Hyp-Nml-Asp-Arg-Ile-NH2] (Octanoyl-[X2]F[dOrn(Me2)]L[Hyp][NMeL]DRI-NH2)	+ (+ IOP reduction >15%)
< 1	CCCCCCCC(=O)N1CCC[C@H](C(=O)N[C@@H](Cc2ccccc2)C(=O)N[C@H](CC(C)C)C(=O)N[C@@H](CC(C)C)C(=O)N2C[C@H](N)C[C@H]2C(=O)N(C)[C@@H](CC(C)C)C(=O)N[C@@H](CC(=O)O)C(=O)N[C@@H](CCCNC(=N)N)C(=O)N[C@H](C(N)=O)[C@@H](C)CC)C1 [JAL-1295, Occ-Sni-Phe-leu-Leu-Tap-Nml-Asp-Arg-Ile-NH2] (Octanoyl-[X2]F[dL]L[Pro(4R-NH2)][NMeL]DRI-NH2)	+ (+ IOP reduction >15%)
< 1	CCCCCCCC(=O)N1CCC[C@H](C(=O)N[C@@H](Cc2ccccc2)C(=O)N[C@H](CN(C)C)C(=O)N[C@@H](CC(C)C)C(=O)N2C[C@H](N)C[C@H]2C(=O)N(C)[C@@H](CC(C)C)C(=O)N[C@@H](CC(=O)O)C(=O)N[C@@H](CCCNC(=N)N)C(=O)N[C@H](C(N)=O)[C@@H](C)CC)C1 [JAL-1325, Occ-Sni-Phe-dap(Me2)-Leu-Tap-Nml-Asp-Arg-Ile-NH2] (Octanoyl-[X2]F[dDap(Me2)]L[Pro(4R-NH2)][NMeL]DRI-NH2)	+ (+ IOP reduction >15%)
< 1	CCCCCCCC(=O)N1CCC[C@H](C(=O)N[C@@H](Cc2ccccc2)C(=O)N[C@H](CC(C)C)C(=O)N[C@@H](CC(C)C)C(=O)N2C[C@H](O)C[C@H]2C(=O)N(C)[C@@H](CC(C)C)C(=O)N[C@@H](CC(=O)O)C(=O)N2CCC[C@H]2C(=O)NC2CCCCCC2)C1 [JAL-1512_02, Occ-Sni-Phe-leu-Leu-Hyp-Nml-Asp-Pro-Che] (Octanoyl-[X2]F[dL]L[Hyp][NMeL]DP-NHcycloheptyl)	+ (+ IOP reduction >15%)
< 1	CCCCCCCC(=O)N1CCC[C@H](C(=O)N[C@@H](Cc2ccccc2)C(=O)NC2(C(=O)N[C@@H](CC(C)C)C(=O)N3C[C@H](O)C[C@H]3C(=O)N(C)[C@@H](CC(C)C)C(=O)N[C@@H](CC(=O)O)C(=O)N[C@@H](CCCNC(=N)N)C(=O)N[C@H](C(N)=O)[C@@H](C)CC)CCNCC2)C1 [JAL-1555, Occ-Sni-Phe-Apc-Leu-Hyp-Nml-Asp-Arg-Ile-NH2] (Octanoyl-[X2]F[Api]L[Hyp][NMeL]DRI-NH2)	+ (+ IOP reduction >15%)
< 1	CCCCCCCC(=O)N1CCC[C@H](C(=O)N[C@@H](Cc2ccccc2)C(=O)N[C@H](CC(C)C)C(=O)N[C@@H](CC(C)C)C(=O)N2C[C@H](N)C[C@H]2C(=O)N(C)[C@@H](CC(C)C)C(=O)N[C@H](C(=O)N2CCC[C@H]2C(=O)NC2CCCCCC2)C(C)C)C1 [JAL-1654, Occ-Sni-Phe-leu-Leu-Tap-Nml-Val-Pro-Che] (Octanoyl-[X2]F[dL]L[Pro(4R-NH2)][NMeL]VP-NHcycloheptyl)	− (− IOP reduction <15%)
< 1	CCCCCCCC(=O)N1CCC[C@H](C(=O)N[C@@H](Cc2ccccc2)C(=O)N[C@H](CC(C)C)C(=O)N[C@@H](CC(C)C)C(=O)N2C[C@H](N)C[C@H]2C(=O)N(C)[C@@H](CC(C)C)C(=O)N[C@H](C(=O)N[C@@H](CCCNC(=N)N)C(=O)NC2CCCCCC2)C(C)C)C1 [JAL-1729, Occ-Sni-Phe-leu-Leu-Tap-Nml-Val-Arg-Che] (Octanoyl-[X2]F[dL]L[Pro(4R-NH2)][NMeL]VR-NHcycloheptyl)	+ (+ IOP reduction >15%)
< 1	CCCCCCCC(=O)N1CCC[C@H](C(=O)N[C@@H](Cc2ccccc2)C(=O)N[C@H](CC(C)C)C(=O)N[C@@H](CC(C)C)C(=O)N2C[C@H](O)C[C@H]2C(=O)N(C)[C@@H](CC(C)C)C(=O)N[C@H](C(=O)N[C@@H](CCCNC(=N)N)C(=O)NC2CCCCCC2)C(C)C)C1 [JAL-1730, Occ-Sni-Phe-leu-Leu-Hyp-Nml-Val-Arg-Che] (Octanoyl-[X2]F[dL]L[Hyp][NMeL]VR-NHcycloheptyl)	+ (+ IOP reduction >15%)
